Measured values: US7482024B2, “Compositions comprising an active agent” (Nektar Therapeutics, priority 1999, dated 2009)
Where “and” joins values, the source holds several entries; their conditions need not be identical. Identical values can stand only once. Peptide text beside a SMILES is read from it.

Assay: Surface tension measurement, Kruss Processor Tensiometer-K12, Wilhelmy-method (plate method)
Type: physicochemical
Conditions: for Surface tension, 25° C. Extrapolated Values at 2 mg/ml / Surface tension, 45° C. Extrapolated Values at 2 mg/ml: extrapolated to 2 mg/ml
Protocol: A “surface active” material is one having surface activity (measured, e.g., by surface tensiometry), as characterized by its ability to reduce the surface tension of the liquid in which it is dissolved. […] A peptide that is more surface active than another peptide is one which decreases the surface tension of water to a greater extent, when present in the liquid at the same concentration and measured under the same set of experimental conditions. The surface tension of several representative dipeptides, tripeptides, and proteins was measured at 25° C. and 45° C. to provide an indication of their relative surface activities. Surface tension measurements were carried out using a Kruss Processor Tensiometer-K12 with the Wilhelmy-method (Plate method). Solutions were prepared by dissolving either 0.05%, 0.2%, or 0.6% peptide/protein (by weight) along with an appropriate amount of raffinose by weight to provide final solutions having a 1.0% by weight solids content. Surface tension measurements at 25° C. and 45° C. were then obtained for the test solutions at three different time points (49 seconds, 100 seconds and 194 seconds).

In the case of `CC(C)CC(N)C(=O)NC(CC(C)C)C(=O)NC(CC(C)C)C(=O)O` (stereo not drawn) [tri-leucine, trileucine] (H-Leu-Leu-Leu-OH; configuration not given here), the “Surface activity (ability to lower the surface tension of water), in words” value is reported as “highly surface active”, the “Surface tension, Actual MEAN” value (0.68 mg/ml, 25° C.) is reported as 56.9 mN/m and the “Surface tension, Actual MEAN” value (0.68 mg/ml, 45° C.) is reported as 52.8 mN/m. For the same molecule, the “Surface tension, Actual MEAN” value (2.03 mg/ml, 25° C.) was 49.7 mN/m, the “Surface tension, Actual MEAN” value (2.03 mg/ml, 45° C.) was 46.3 mN/m and the “Surface tension, Actual MEAN” value (6.10 mg/ml, 25° C.) was 42.4 mN/m. For the same molecule, the “Surface tension, Actual MEAN” value (6.10 mg/ml, 45° C.) was 38.9 mN/m, the “Surface tension (ST)” value (0.05%, pH4, raffinose to 1% solids, 25° C., 49 s, listed as leu3) was 59.9 mN/m and 60.4 mN/m and the “Surface tension (ST)” value (0.05%, pH4, raffinose to 1% solids, 25° C., 100 s, listed as leu3) was 59.8 mN/m and 60.3 mN/m. The “Surface tension (ST)” value (0.05%, pH4, raffinose to 1% solids, 25° C., 194 s, listed as leu3) was 59.7 mN/m and 60.2 mN/m, the “Surface tension (ST)” value (0.05%, pH4, raffinose to 1% solids, 45° C., 49 s, listed as leu3) was 57.1 mN/m and 58.1 mN/m and 58 mN/m and the “Surface tension (ST)” value (0.05%, pH4, raffinose to 1% solids, 45° C., 100 s, listed as leu3) was 57 mN/m and 57.9 mN/m and 57.8 mN/m. For the same molecule, the “Surface tension (ST)” value (0.05%, pH4, raffinose to 1% solids, 45° C., 194 s, listed as leu3) was 57 mN/m and 57.8 mN/m, the “Surface tension (ST)” value (0.05%, pH7, raffinose to 1% solids, 25° C., 49 s, listed as leu3) was 60.1 mN/m and 60 mN/m and 60.2 mN/m and the “Surface tension (ST)” value (0.05%, pH7, raffinose to 1% solids, 25° C., 100 s, listed as leu3) was 59.8 mN/m and 60 mN/m. For the same molecule, the “Surface tension (ST)” value (0.05%, pH7, raffinose to 1% solids, 25° C., 194 s, listed as leu3) was 59.7 mN/m and 59.8 mN/m, the “Surface tension (ST)” value (0.05%, pH7, raffinose to 1% solids, 45° C., 49 s, listed as leu3) was 58.5 mN/m and 58.2 mN/m and the “Surface tension (ST)” value (0.05%, pH7, raffinose to 1% solids, 45° C., 100 s, listed as leu3) was 58.4 mN/m and 58.2 mN/m and 58.1 mN/m. For the same molecule, the “Surface tension (ST)” value (0.05%, pH7, raffinose to 1% solids, 45° C., 194 s, listed as leu3) was 58.4 mN/m and 58.1 mN/m, the “Surface tension (ST)” value (0.2% (wt/vol) plus raffinose to 1% total solids, 25° C., 49 s) was 51 mN/m and the “Surface tension (ST)” value (0.2% (wt/vol) plus raffinose to 1% total solids, 25° C., 100 s) was 50.9 mN/m and 50.8 mN/m. The “Surface tension (ST)” value (0.2% (wt/vol) plus raffinose to 1% total solids, 25° C., 194 s) was 50.9 mN/m and 50.7 mN/m, the “Surface tension (ST)” value (0.2%, pH4, raffinose to 1% solids, 25° C., 49 s) was 51.4 mN/m and the “Surface tension (ST)” value (0.2%, pH4, raffinose to 1% solids, 25° C., 100 s, listed as leu3) was 51.2 mN/m and 51.3 mN/m. The “Surface tension (ST)” value (0.2%, pH4, raffinose to 1% solids, 25° C., 194 s, listed as leu3) was 51.1 mN/m and 51.2 mN/m, the “Surface tension (ST)” value (0.2%, pH4, raffinose to 1% solids, 45° C., 49 s, listed as leu3) was 47.9 mN/m and 47.2 mN/m and the “Surface tension (ST)” value (0.2%, pH4, raffinose to 1% solids, 45° C., 100 s, listed as leu3) was 47.5 mN/m and 47.2 mN/m and 47.3 mN/m. The “Surface tension (ST)” value (0.2%, pH4, raffinose to 1% solids, 45° C., 194 s, listed as leu3) was 47.4 mN/m and 47.3 mN/m and 47.1 mN/m, the “Surface tension (ST)” value (0.2%, pH7, raffinose to 1% solids, 25° C., 49 s, listed as leu3) was 51 mN/m and 50.9 mN/m and 50.7 mN/m and the “Surface tension (ST)” value (0.2%, pH7, raffinose to 1% solids, 25° C., 100 s, listed as leu3) was 50.8 mN/m and 50.7 mN/m and 50.5 mN/m. The “Surface tension (ST)” value (0.2%, pH7, raffinose to 1% solids, 25° C., 194 s, listed as leu3) was 50.7 mN/m and 50.6 mN/m and 50.4 mN/m, the “Surface tension (ST)” value (0.2%, pH7, raffinose to 1% solids, 45° C., 49 s, listed as leu3) was 58.5 mN/m and 58.2 mN/m and the “Surface tension (ST)” value (0.2%, pH7, raffinose to 1% solids, 45° C., 100 s, listed as leu3) was 58.4 mN/m and 58.2 mN/m and 58.1 mN/m. For the same molecule, the “Surface tension (ST)” value (0.2%, pH7, raffinose to 1% solids, 45° C., 194 s, listed as leu3) was 58.4 mN/m and 58.1 mN/m, the “Surface tension (ST)” value (0.6%, pH4, raffinose to 1% solids, 25° C., 49 s, listed as leu3) was 44.2 mN/m and 44.3 mN/m and the “Surface tension (ST)” value (0.6%, pH4, raffinose to 1% solids, 25° C., 100 s, listed as leu3) was 44.1 mN/m and 44.2 mN/m. The “Surface tension (ST)” value (0.6%, pH4, raffinose to 1% solids, 25° C., 194 s, listed as leu3) was 44 mN/m and 44.2 mN/m and 44.1 mN/m, the “Surface tension (ST)” value (0.6%, pH4, raffinose to 1% solids, 45° C., 49 s, listed as leu3) was 40.9 mN/m and 41.1 mN/m and the “Surface tension (ST)” value (0.6%, pH4, raffinose to 1% solids, 45° C., 100 s, listed as leu3) was 40.9 mN/m and 41 mN/m. For the same molecule, the “Surface tension (ST)” value (0.6%, pH4, raffinose to 1% solids, 45° C., 194 s, listed as leu3) was 40.8 mN/m and 40.9 mN/m, the “Surface tension (ST)” value (0.6%, pH7, raffinose to 1% solids, 25° C., 49 s, listed as leu3) was 43.7 mN/m and 43.8 mN/m and the “Surface tension (ST)” value (0.6%, pH7, raffinose to 1% solids, 25° C., 100 s) was 43.7 mN/m. For the same molecule, the “Surface tension (ST)” value (0.6%, pH7, raffinose to 1% solids, 25° C., 194 s, listed as leu3) was 43.6 mN/m and 43.7 mN/m, the “Surface tension of water lowered to” value (concentration of 0.68 mg/ml) was “about 57 mN/m” and the Surface tension of water lowered to (concentration of 1.20 mg/ml, water about 72 mN/m) was 42 mN/m. For the same molecule, the “Surface tension, 25° C. Extrapolated Values at 2 mg/ml” value (25° C.) was 49.7 mN/m and the “Surface tension, 45° C. Extrapolated Values at 2 mg/ml” value (45° C.) was 46.3 mN/m.
For Leu-Val [reference compound], the “Surface tension, Actual MEAN” value (0.98 mg/ml, 25° C.) was 69.2 mN/m, the “Surface tension, Actual MEAN” value (0.98 mg/ml, 45° C.) was 64.2 mN/m and the “Surface tension, Actual MEAN” value (2.93 mg/ml, 25° C.) was 65 mN/m. For the same molecule, the “Surface tension, Actual MEAN” value (2.93 mg/ml, 45° C.) was 60.4 mN/m, the “Surface tension, Actual MEAN” value (8.80 mg/ml, 25° C.) was 59.1 mN/m and the “Surface tension, Actual MEAN” value (8.80 mg/ml, 45° C.) was 55.7 mN/m. For the same molecule, the “Surface tension, 25° C. Extrapolated Values at 2 mg/ml” value (25° C.) was 67.2 mN/m and the “Surface tension, 45° C. Extrapolated Values at 2 mg/ml” value (45° C.) was 62.3 mN/m.
With leu-leu-ala the “Surface tension, Actual MEAN” value (0.76 mg/ml, 25° C.) was 60.7 mN/m, the “Surface tension, Actual MEAN” value (0.76 mg/ml, 45° C.) was 58.3 mN/m and the “Surface tension, Actual MEAN” value (2.27 mg/ml, 25° C.) was 43.5 mN/m. For the same molecule, the “Surface tension, Actual MEAN” value (2.27 mg/ml, 45° C.) was 48.2 mN/m, the “Surface tension, Actual MEAN” value (6.80 mg/ml, 25° C.) was 39.9 mN/m and the “Surface tension, Actual MEAN” value (6.80 mg/ml, 45° C.) was 48.4 mN/m. For the same molecule, the “Surface tension, 25° C. Extrapolated Values at 2 mg/ml” value (25° C.) was 46.6 mN/m and the “Surface tension, 45° C. Extrapolated Values at 2 mg/ml” value (45° C.) was 49.8 mN/m.
In the case of Val-Leu [reference compound], the “Surface tension, Actual MEAN” value (0.87 mg/ml, 25° C.) is reported as 70 mN/m, the “Surface tension, Actual MEAN” value (0.87 mg/ml, 45° C.) is reported as 65.5 mN/m and the “Surface tension, Actual MEAN” value (2.60 mg/ml, 25° C.) is reported as 69.5 mN/m. The “Surface tension, Actual MEAN” value (2.60 mg/ml, 45° C.) was 65.0 mN/m, the “Surface tension, Actual MEAN” value (7.80 mg/ml, 25° C.) was 68 mN/m and the “Surface tension, Actual MEAN” value (7.80 mg/ml, 45° C.) was 63.5 mN/m. The “Surface tension, 25° C. Extrapolated Values at 2 mg/ml” value (25° C.) was 69.8 mN/m and the “Surface tension, 45° C. Extrapolated Values at 2 mg/ml” value (45° C.) was 65.3 mN/m.
For di-valine [reference compound], the “Surface activity (ability to lower the surface tension of water), in words” value was “not particularly effective at lowering the surface tension of water”, the “Surface tension (ST)” value (Table 2: 0.20% (wt/vol) plus 0.80% raffinose, 25° C., 49 s) was 71.7 mN/m and 71.6 mN/m and the “Surface tension (ST)” value (Table 2: 0.20% (wt/vol) plus 0.80% raffinose, 25° C., 100 s) was 71.6 mN/m. For the same molecule, the “Surface tension (ST)” value (Table 2: 0.20% (wt/vol) plus 0.80% raffinose, 25° C., 194 s) was 71.6 mN/m.
